Test results from publication PMC9598656, “In Vitro Activity of Robenidine Analogues NCL259 and NCL265 against Gram-Negative Pathogens” (Antibiotics, 2022).

Key:
A. baumannii ATCC 19606 [1] = test: MIC, broth micro-dilution; format: cell-based, Acinetobacter baumannii; conditions: Acinetobacter baumannii, ATCC19606, read-out: MIC, Single Drug
Procedure: A variety of Gram-negative reference strains (E. coli ATCC 25922, E. coli ATCC 10763, P. aeruginosa PAO1, P. aeruginosa ATCC 27853, A. baumannii ATCC 12457, A. baumannii ATCC 19606, K. pneumoniae ATCC 4352 and K. pneumoniae ATCC 33495) were used for initial screening and combination testing with PMB. The organisms were speciated using biochemical testing and MALDI-TOF mass spectrometry (Bruker, Preston, VIC, Australia). Activity testing of NCL259 and NCL265 was also carried out on 51 extraintestinal clinical E. coli isolates from companion animals, and 83 porcine and bovine enterotoxigenic E. coli (ETEC) isolates from the Australian Centre for Antimicrobial Resistance Ecology collection. E. coli wild-type (BW 25113) and its mutant BW 25113∆AcrB, in which the inner membrane component AcrB of the tripartite multidrug efflux system AcrA/AcrB/TolC has been deleted, were obtained from the bacterial collection held at Health and Biomedical Innovation, Clinical and Health Sciences, The University of South Australia. All isolates were cultured on sheep blood agar (SBA) plates at 37 °C for 18 h before being subcultured into Luria Bertaini (LB) (Oxoid, Scoresby, VIC, Australia) broth and grown to A600nm = 0.5 (equivalent to approx. 1.5 × 10^8 colony-forming units (CFU)/mL).
MICs for NCL259 and NCL265 (serial two-fold dilutions commencing at 256 µg/mL) were determined (in duplicate) in round bottom 96–well microtitre trays (Sarstedt 82.1582.001), using the broth micro-dilution method recommended by the Clinical and Laboratory Standards Institute (CLSI). We have shown previously that robenidine can chelate calcium ions from cation-adjusted Mueller-Hinton broth, which causes the loss of activity of robenidine. Therefore, LB broth was used in this study. Additionally, considering the low solubility of robenidine and its analogues in aqueous solutions, two-fold serial dilutions of stock solutions of these compounds were prepared in 100% DMSO [21]. The MIC for ampicillin against each isolate was determined for each test to serve as an internal quality control. The MICs of isolates were determined by visual reading and using an EnSpire Multimode Plate Reader 2300 at A600nm.

A. baumannii ATCC 12457 = test: Checkerboard assay with PMB; format: cell-based, Acinetobacter baumannii; conditions: for MIC, Combination: NCL259 or NCL265 with PMB; for Combination Effect / FICI: with PMB
Procedure: (§1) MICs of NCL259 or NCL265 in the presence of the efflux pump inhibitor, PAβN were determined using a checkerboard assay. […] Briefly, a two-fold serial dilution of each antimicrobial solution was prepared in its appropriate solvent (e.g., DMSO for robenidine analogues and Milli-Q water for PAβN), and 1 μL of each dilution was added from wells 12 to 3 (12.8–0.25 μg/mL for robenidine analogues, and 32–2 μg/mL for PAβN). Thereafter, 89 μL of LB broth was added to each well followed by the addition of 10 μL of bacterial suspension (1–5 × 10^6 CFU/mL) to each well. In this manner, the final concentration of DMSO in each well was 1%. The plate was subsequently incubated at 37 °C for 24 h. The resazurin assay was used for assessment of drug susceptibility of NCL259 and NCL265 (Supplementary Table S1–S6). The same method was also used to test the MICs of NCL259 or NCL265 in the presence of PMB against a range of Gram-negative reference strains (E. coli ATCC 25922, E. coli ATCC 10763, P. aeruginosa PAO1, P. aeruginosa ATCC 27853, A. baumannii ATCC 12457, A. baumannii ATCC 19606, K. pneumoniae ATCC 4352 and K. pneumoniae ATCC 33495). Stock solutions were prepared prior to use (25.6–0.25 mg/mL for robenidine analogues; 12.8–0.25 mg/mL for PMB). The interaction of two antibiotics was calculated as the fractional inhibitory concentration index (FICI) using the following formula:(1) FICI=MICA in combination/MICA alone+MICB in combination/MICB alone where A is NCL259 or NCL265 and B is PAβN or PMB. According to FICI calculations, the interaction between two compounds were interpreted as follows: synergistic (FICI ≤ 0.5); additive or partially synergistic (0.5 < FICI ≤ 1); indifferent (1 < FICI ≤ 4); and antagonistic (FICI > 4), as described previously. The dose reduction index (DRI) was used to describe the difference between the effective doses of NCL259 or NCL265 in combination with PMB or PAβN in comparison to their individual doses, using the following formula:(2) DRI=MICA alone/MICA in combination
(§2) Evaluation of DRI is important clinically because it can allow the dose of a potentially toxic drug to be lowered in combination with another compound without reducing the drug’s efficacy. A DRI higher than 1 is viewed as beneficial.

A. baumannii ATCC 19606 [2] = test: Checkerboard assay with PMB; format: cell-based, Acinetobacter baumannii; conditions: for MIC, Combination: NCL259 or NCL265 with PMB; for Combination Effect / FICI: with PMB
Procedure: as §1, §2

[3] = system: Gram-negative human and animal isolates, including human KAPE pathogens; test: MIC range over all isolates; format: cell-based; conditions: variety of Gram-negative human and animal isolates (discussion)
Procedure: A variety of Gram-negative reference strains (E. coli ATCC 25922, E. coli ATCC 10763, P. aeruginosa PAO1, P. aeruginosa ATCC 27853, A. baumannii ATCC 12457, A. baumannii ATCC 19606, K. pneumoniae ATCC 4352 and K. pneumoniae ATCC 33495) were used for initial screening and combination testing with PMB. The organisms were speciated using biochemical testing and MALDI-TOF mass spectrometry (Bruker, Preston, VIC, Australia). Activity testing of NCL259 and NCL265 was also carried out on 51 extraintestinal clinical E. coli isolates from companion animals, and 83 porcine and bovine enterotoxigenic E. coli (ETEC) isolates from the Australian Centre for Antimicrobial Resistance Ecology collection. […]
MICs for NCL259 and NCL265 (serial two-fold dilutions commencing at 256 µg/mL) were determined (in duplicate) in round bottom 96–well microtitre trays (Sarstedt 82.1582.001), using the broth micro-dilution method recommended by the Clinical and Laboratory Standards Institute (CLSI). […] The MIC for ampicillin against each isolate was determined for each test to serve as an internal quality control. The MICs of isolates were determined by visual reading and using an EnSpire Multimode Plate Reader 2300 at A600nm.

Row | Structure (SMILES) | MIC (A. baumannii ATCC 19606 [1]) [µg/mL] | MIC, Combination (A. baumannii ATCC 12457) [µg/mL] | Dose Reduction Index (DRI) PMB:NCL259 (A. baumannii ATCC 12457; PMB + NCL259) | Combination Effect (A. baumannii ATCC 12457) | FICI (A. baumannii ATCC 12457) | MIC, Combination (A. baumannii ATCC 19606 [2]) [µg/mL] | Dose Reduction Index (DRI) PMB:NCL259 (A. baumannii ATCC 19606 [2]; PMB + NCL259) | Combination Effect (A. baumannii ATCC 19606 [2]) | FICI (A. baumannii ATCC 19606 [2]) | MIC range [3] [µg/mL] | Dose Reduction Index (DRI) PMB:NCL265 (A. baumannii ATCC 12457; PMB + NCL265) | Dose Reduction Index (DRI) PMB:NCL265 (A. baumannii ATCC 19606 [2]; PMB + NCL265)
1 | [H]/N=C(\N)NN=C(CC1CCCCC1)c1ccc(Cl)cc1 [NCL259, (E)-2-(1-(4-chlorophenyl)-2-cyclohexylethylidene)hydrazine-1-carboximidamide] | 8 | 1 | 8 | Additivity (additive or partially synergistic, 0.5 < FICI ≤ 1) | 0.625 | 1 | 8 | Additivity (additive or partially synergistic, 0.5 < FICI ≤ 1) | 0.625 |  |  | 
2 | [H]/N=C(\N)NN=C(CCCCCC)c1ccc(Cl)cc1 [NCL265, (E)-2-(1-(4-chlorophenyl)heptylidene)hydrazine-1-carboximidamide] | 2 | 0.5 |  | Additivity (additive or partially synergistic, 0.5 < FICI ≤ 1) | 0.75 | 0.5 |  | Additivity (additive or partially synergistic, 0.5 < FICI ≤ 1) | 0.75 | 2 to 32 | 4 | 4
